Test results from paper PMC11638965, “Leveraging Dual-Ligase Recruitment to Enhance Protein Degradation via a Heterotrivalent Proteolysis Targeting Chimera” (Journal of the American Chemical Society, 2024).
“Also recorded” adds a separate entry of the source. Where two headings read alike, the source gives them in different places. Blank lines part the entries; values can stand above or below the compound they belong to.

Legend:
[1] = tested on: HiBiT-BRD4 and HaloTag-CRBN; test: NanoBRET live cell ternary complex formation assay; type: cell-based, human
Method: NanoBRET ternary complex assays were performed using Promega kits for CRBN (ND2720) and VHL (ND2700) according to manufacturer’s instructions. One day prior to the assay, HEK293 HiBiT-BRD4 (LgBiT Stable) were plated at a density of 800,000 cells/well in a 6-well plate. Cells were allowed to adhere for at least 4 h. Transfection mixtures containing 100 μL Opti-MEM, 6 μL FuGENE HD, and either 2 μg HaloTag-CRBN or HaloTag-VHL were prepared and allowed to incubate for 10 min at room temperature prior to addition to the cells. The next day, cells were trypsinized and resuspended in phenol red-free Opti-MEM Reduced Serum Medium supplemented with 4% FBS. Cells were counted and density was adjusted to 200,000 cells/mL. Cells were divided into two pools: one which received HaloTag NanoBRET 618 Ligand at a final concentration of 100 nM and one which received the same volume of DMSO. Cells were plated on white tissue-culture 96-well plates (100 μL/well) and allowed to adhere overnight. The next day, media was aspirated from the cells and replaced with phenol red-free Opti-MEM Reduced Serum medium supplemented with 4% FBS and a 1:100 dilution of Nano-Glo Vivazine substrate (Promega) and 10 μM MG132. Luminescence was allowed to equilibrate at 37 °C, 5% CO2 for 1 h. During this time, a dilution series of each PROTAC at 10x the desired final concentration was prepared (keeping DMSO constant in all concentrations). 10 μL of this dilution series was added to the plate after luminescence equilibration, and kinetic measurements of donor emission at 460 nm and acceptor emission at 618 nm were collected every 3 min using a ClarioStar plate reader. milliBRET ratios were calculated as (Emission at 618 nm/Emission at 460 nm) × 1000. Donor-contributed background or bleedthrough was corrected for by subtracting milliBRET ratios from no ligand control cells from treated cells. Corrected milliBRET ratios were plotted as a function of time in GraphPad Prism.

CRBN = CRBN (Homo sapiens, UniProt Q96SW2); test: NanoBRET lytic and live cell target engagement assay; type: binding; parameters: host or cells: HEK293, transient; conditions: for IC50: HEK293 cells with NanoLuc-CRBN, CRBN fluorescent tracer
Method: CRBN (N2910, Promega) and VHL (N2930, Promega) NanoBRET target engagement assays were performed according to manufacturer’s instructions. Transfection complexes were prepared using 1 mL Opti-MEM, 30 μL FuGENE HD, and either 9 μg/mL DDB1 Expression Vector and 1 μg/mL NanoLuc-CRBN fusion vector, or 9 μg/mL Transfection Carrier DNA and 1 μg/mL VHL-NanoLuc fusion vector. Transfection complexes were allowed to form for 20 min at room temperature, then were added to 20 mL of HEK293 cells at density of 200,000 cells/mL. Transfected HEK293 cells were plated in a T75 flask and allowed to express protein overnight. The next day, 85 μL of transfected cells (at 200,000 cells/mL) were replated in white nonbinding 96-well plates for live and lytic target engagement measurements. For live mode, a 100x solution of NanoBRET tracer was prepared using 100% DMSO (50 μM for CRBN live-cell, 100 μM for VHL live-cell). 100x tracer was used to prepare 20× tracer using tracer dilution buffer. PROTACs or test compounds were prepared at 10x final concentrations in Opti-MEM. Five μL of the prepared tracer was then dispensed to each well and the plate was mixed on an orbital shaker at 300 rpm for 15 s. Ten μL of each 10x PROTAC dilution was added to the cells and the plate was mixed again before being incubated at a 37 °C, 5% CO2 incubator for 2 or 5 h (as indicated in each figure). After incubation, a 50 μL of a 3X substrate solution (containing 30 μL NanoBRET Nano-Glo Substrate, 10 μL Extracellular NanoLuc inhibitor, and 4960 μL of Opti-MEM) was added to each well. Plates were incubated for 2–3 min at room temperature, then donor emission (450 nm) and acceptor emission (at 610 nm) values were read using a GloMax Discover. For lytic mode, the following changes were made. […] Plates were incubated in darkness for 5 min after digitonin addition to allow for permeabilization. 50 μL of 3X substrate (30 μL NanoBRET Nano-Glo substrate and 4970 μL Opti-MEM) was added to each well and plates were incubated for 1 min at room temperature before being read on a GloMax Discover as above.

RKO CRBN/VHL dKO cells = test: Cell viability assay (CellTiter-Glo); type: cell-based, human; conditions: read-out: EC50 RKO CRBN/VHL dKO
Method: (§1) RKO WT, VHL KO, CRBN KO and CRBN/VHL dKO cells were cultured in Dulbecco’s modified Eagle’s medium supplemented with 10% FCS and 1% penicillin–streptomycin. RKO CRBN KO and VHL KO were generated previously.[45] RKO CRBN/VHL dKO cells were generated by transiently expressing pSpCas9(BB)-2A-GFP (PX458) (Addgene 48138) loaded with a short guide RNA (sgRNA) targeting VHL (Fwd: […], Rev: […]) in RKO CRBN KO cells. Clones were single cell seeded and checked for VHL and CRBN double deletion via Western blot or PCR on genomic DNA (gDNA).
(§2) Cells were seeded in 96-well plates at a cell density of 3750 cells per well and treated for 3 days with DMSO or drug at ten √10 serial diluted concentrations. Starting concentration for all drugs was 10 μM, and each treatment was performed in biological triplicates. Cell viability was assessed using the CellTiter-Glo assay (CellTiter-Glo Luminescent Cell Viability Assay, Promega G7573) according to manufacturer instructions. Luminescence signal was measured on a Multilabel Plate Reader Platform Victor X3 model 2030 (PerkinElmer). Survival curves and EC50 values were determined using GraphPad Prism v.10.0.3 by fitting a nonlinear regression to the log10-transformed drug concentration and the relative viability after normalization of each data point to the mean luminescence of the lowest drug concentration.

RKO VHL KO cells = test: Cell viability assay (CellTiter-Glo); type: cell-based, human
Method: as §1, §2

RKO CRBN KO cells [2] = test: Cell viability assay (CellTiter-Glo); type: cell-based, human; conditions: 316 pM to 10 μM, 3 days, n = 3 (Figures 5 and 8C, Table S5)
Method: as §1, §2

RKO CRBN KO cells [3] = test: Cell viability assay (CellTiter-Glo); type: cell-based, human; conditions: 500 pM to 10 μM, 3 days (Figure 10, Table S6)
[4] = Homo sapiens, 72 h, 316 pM to 10 μM, 3 days, n = 3 (Figures 5 and 8C, Table S5)
[5] = Homo sapiens, 72 h, 500 pM to 10 μM, 3 days (Figure 10, Table S6)

Sequence of CRBN (Q96SW2 whole entry, the tested form may be a part): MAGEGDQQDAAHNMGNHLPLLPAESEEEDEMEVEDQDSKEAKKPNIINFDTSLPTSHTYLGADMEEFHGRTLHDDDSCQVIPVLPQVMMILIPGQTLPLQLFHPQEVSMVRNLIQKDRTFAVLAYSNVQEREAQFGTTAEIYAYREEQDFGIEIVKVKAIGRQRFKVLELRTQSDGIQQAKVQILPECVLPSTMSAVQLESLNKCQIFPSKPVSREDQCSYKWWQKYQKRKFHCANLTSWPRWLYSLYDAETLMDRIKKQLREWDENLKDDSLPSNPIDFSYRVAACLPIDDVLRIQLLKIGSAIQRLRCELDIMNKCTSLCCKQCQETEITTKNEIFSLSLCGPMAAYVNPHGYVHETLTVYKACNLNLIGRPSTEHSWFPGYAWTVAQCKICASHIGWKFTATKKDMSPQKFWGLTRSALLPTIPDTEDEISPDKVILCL
Sequence of CRBN (Q16531 whole entry partner, the tested form may be a part): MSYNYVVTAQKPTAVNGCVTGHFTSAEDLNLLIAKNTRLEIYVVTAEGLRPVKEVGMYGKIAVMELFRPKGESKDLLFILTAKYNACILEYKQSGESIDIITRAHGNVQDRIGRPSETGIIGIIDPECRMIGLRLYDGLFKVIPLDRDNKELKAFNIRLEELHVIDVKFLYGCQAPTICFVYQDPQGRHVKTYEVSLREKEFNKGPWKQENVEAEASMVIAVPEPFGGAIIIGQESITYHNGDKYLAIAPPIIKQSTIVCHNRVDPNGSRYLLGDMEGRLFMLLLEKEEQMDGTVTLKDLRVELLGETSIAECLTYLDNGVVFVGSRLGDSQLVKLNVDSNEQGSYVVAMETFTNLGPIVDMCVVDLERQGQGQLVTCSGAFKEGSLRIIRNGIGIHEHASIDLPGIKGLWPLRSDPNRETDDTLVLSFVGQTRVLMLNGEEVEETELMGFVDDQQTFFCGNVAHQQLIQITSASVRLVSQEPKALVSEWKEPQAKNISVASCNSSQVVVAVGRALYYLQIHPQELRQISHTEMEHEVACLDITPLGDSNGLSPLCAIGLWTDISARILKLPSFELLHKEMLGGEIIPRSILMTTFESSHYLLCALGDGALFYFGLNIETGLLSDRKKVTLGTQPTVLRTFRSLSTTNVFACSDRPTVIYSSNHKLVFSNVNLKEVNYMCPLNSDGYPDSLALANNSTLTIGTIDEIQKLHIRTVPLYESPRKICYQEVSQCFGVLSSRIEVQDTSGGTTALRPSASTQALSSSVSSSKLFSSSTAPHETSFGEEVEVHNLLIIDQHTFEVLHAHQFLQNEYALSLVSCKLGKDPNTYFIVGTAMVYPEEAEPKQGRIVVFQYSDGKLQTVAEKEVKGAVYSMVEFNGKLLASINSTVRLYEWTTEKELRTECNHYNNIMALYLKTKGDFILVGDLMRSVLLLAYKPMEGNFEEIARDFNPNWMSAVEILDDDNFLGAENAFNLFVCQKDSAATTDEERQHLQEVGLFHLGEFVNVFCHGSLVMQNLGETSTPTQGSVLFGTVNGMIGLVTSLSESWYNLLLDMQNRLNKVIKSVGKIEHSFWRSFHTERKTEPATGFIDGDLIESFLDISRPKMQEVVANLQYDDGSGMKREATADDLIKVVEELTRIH

- IC50 (CRBN; live cells 2 h, read-out: IC50 (Live Cell), Target: CRBN): 1560 nM
- IC50 (CRBN; lysed with digitonin, read-out: IC50 (Lytic Cell), Target: CRBN): 412 nM
Compound: Cc1ncsc1-c1ccc(CNC(=O)[C@@H]2C[C@@H](O)CN2C(=O)[C@@H](NC(=O)COCC(C)(COCCOCCOCCNc2cc3c(cc2F)C(=O)N(C2CCC(=O)NC2=O)C3=O)COCCOCCOCCOC(=O)C[C@@H]2N=C(c3ccc(Cl)cc3)c3c(sc(C)c3C)-n3c(C)nnc32)C(C)(C)C)cc1 (mixture of isomers) [AB3063 (26), (17S)-11-((2-(2-(2-((2-(2,6-dioxopiperidin-3-yl)-6-fluoro-1,3-dioxoisoindolin-5-yl)amino)ethoxy)ethoxy)ethoxy)methyl)-17-((2S,4R)-4-hydroxy-2-((4-(4-methylthiazol-5-yl)benzyl)carbamoyl)pyrrolidine-1-carbonyl)-11,18,18-trimethyl-15-oxo-3,6,9,13-tetraoxa-16-azanonadecyl 2-((S)-4-(4-chlorophenyl)-2,3,9-trimethyl-6H-thieno[3,2-f][1,2,4]triazolo[4,3-a][1,4]diazepin-6-yl)acetate]
- ternary complex formation between BRD4 and CRBN (in words) ([1]; HiBiT-BRD4 HEK293 cells, HaloTag-CRBN, MG132 pretreatment, 0.01, 0.1 and 1 μM, 3.5 h): can engage and form ternary complexes
- time to plateau of ternary complex signal with CRBN ([1]; NanoBRET, HiBiT-BRD4 HEK293 cells with HaloTag-CRBN): 30 min
- EC50 (RKO CRBN/VHL dKO cells; [4]): 2240 nM

Compound: Cc1ncsc1-c1ccc(CNC(=O)[C@@H]2C[C@@H](O)CN2C(=O)[C@@H](NC(=O)COCC(COCCOCCOCCNc2cc3c(cc2F)C(=O)N(C2CCC(=O)NC2=O)C3=O)(COCCOCCOCCOC(=O)C[C@@H]2N=C(c3ccc(Cl)cc3)c3c(sc(C)c3C)-n3c(C)nnc32)COCCOCCOCCOC(=O)C[C@@H]2N=C(c3ccc(Cl)cc3)c3c(sc(C)c3C)-n3c(C)nnc32)C(C)(C)C)cc1 (mixture of isomers) [AB3124 (86)]
- EC50 (RKO VHL KO cells; 316 pM to 10 μM, 3 days, n = 3 (Figures 5 and 8C, Table S5), listed as 86): 34 nM
- EC50 (RKO VHL KO cells; [4]): 62 nM
- EC50 (RKO CRBN/VHL dKO cells; [4]): 16 nM
- EC50 (RKO CRBN KO cells [2]; listed as 86): 62 nM
- EC50 (RKO CRBN KO cells [2]; Homo sapiens, 72 h): 34 nM

Compound: Cc1ncsc1-c1ccc([C@H](C)NC(=O)[C@@H]2C[C@H](O)CN2C(=O)[C@@H](NC(=O)COCC(C)(COCCOCCOCCNc2cc3c(cc2F)C(=O)N(C2CCC(=O)NC2=O)C3=O)COCCOCCOCCOC(=O)C[C@@H]2N=C(c3ccc(Cl)cc3)c3c(sc(C)c3C)-n3c(C)nnc32)C(C)(C)C)cc1 (mixture of isomers) [cis-AB3067 (94), (17S)-11-((2-(2-(2-((2-(2,6-dioxopiperidin-3-yl)-6-fluoro-1,3-dioxoisoindolin-5-yl)amino)ethoxy)ethoxy)ethoxy)methyl)-17-((2S,4S)-4-hydroxy-2-(((S)-1-(4-(4-methylthiazol-5-yl)phenyl)ethyl)carbamoyl)pyrrolidine-1-carbonyl)-11,18,18-trimethyl-15-oxo-3,6,9,13-tetraoxa-16-azanonadecyl 2-((S)-4-(4-chlorophenyl)-2,3,9-trimethyl-6H-thieno[3,2-f][1,2,4]triazolo[4,3-a][1,4]diazepin-6-yl)acetate]
- EC50 (RKO CRBN KO cells [3]; listed as 94): ~820 nM
- EC50 (RKO CRBN KO cells [3]; Homo sapiens, 72 h): 832 nM
- CRBN engagement compared to 27 (in words) (CRBN; lytic, live cell 2 h and 5 h (Figure S6), listed as 94): slight improvement in binding to CRBN after 2 h; also recorded: even greater binding to CRBN after 5 h compared to 27
- EC50 (RKO VHL KO cells; [5]): 48 nM
- EC50 (RKO CRBN/VHL dKO cells; 500 pM to 10 μM, 3 days (Figure 10, Table S6), listed as 94): ~820 nM
- EC50 (RKO CRBN/VHL dKO cells; [5]): 804 nM

Compound: Cc1ncsc1-c1ccc([C@H](C)NC(=O)[C@@H]2C[C@H](O)CN2C(=O)[C@@H](NC(=O)COCC(C)(COCCOCCOCCNc2cc3c(cc2F)C(=O)N(C2CCC(=O)N(C)C2=O)C3=O)COCCOCCOCCOC(=O)C[C@@H]2N=C(c3ccc(Cl)cc3)c3c(sc(C)c3C)-n3c(C)nnc32)C(C)(C)C)cc1 (mixture of isomers) [neg-cis-AB3067 (95), (17S)-11-((2-(2-(2-((6-fluoro-2-(1-methyl-2,6-dioxopiperidin-3-yl)-1,3-dioxoisoindolin-5-yl)amino)ethoxy)ethoxy)ethoxy)methyl)-17-((2S,4S)-4-hydroxy-2-(((S)-1-(4-(4-methylthiazol-5-yl)phenyl)ethyl)carbamoyl)pyrrolidine-1-carbonyl)-11,18,18-trimethyl-15-oxo-3,6,9,13-tetraoxa-16-azanonadecyl 2-((S)-4-(4-chlorophenyl)-2,3,9-trimethyl-6H-thieno[3,2-f][1,2,4]triazolo[4,3-a][1,4]diazepin-6-yl)acetate]
- EC50 (RKO CRBN KO cells [3]; Homo sapiens, 72 h): 586 nM
- EC50 (RKO VHL KO cells; [5]): 522 nM
- EC50 (RKO CRBN/VHL dKO cells; [5]): 657 nM
